In general, Kd refers to a measure of binding affinity in units of concentration.

Where “and” joins values, the source holds several entries; their conditions need not be identical. Equal entries are not always repeated.

The target in data set [1] is T1, cytochrome P450cam (Pseudomonas putida, UniProt P00183). To be noted: cited from earlier work.
Data set [2] concerns the target T2, cytochrome P450cam (Pseudomonas putida, UniProt P00183, C335A). The data set is described as follows: biochemical. As for the experimental part:
A Hewlett Packard 8452A spectrophotometer was used to collect UV-vis data. Buffer conditions were 50 mM potassium phosphate, 100 mM potassium chloride, pH 7.4 for all protein solutions (˜5 μM P450). […] Thus, affinities were determined by the ability of these complexes to inhibit the low- to high-spin transition produced by camphor. […] The concentration of ethanol never exceeded 1% of the total volume. […] Absorbance changes were recorded at 392 and 416 nm. […] By definition, KD=Kcam/KI, where Kcam is the dissociaton constant of camphor (in the absence of Ru-substrate), and KI is the equilibrium constant between camphor- and ruthenium-bound P450, spectroscopically determined by measuring the dissociation constant of camphor at multiple Ru concentrations. Luminescence experiments measure KD directly.

For data set [3], the target named is T1, cytochrome P450cam. To be noted: for rate of hydroxylation (NADH consumption): NADH/PdR/Pd/P450, 1 μM P450, 20 °C. As for the experimental part:
Two cycles of acetonitrile (5 mL) addition, decanting, and rotary evaporation were performed to separate the buffer salts from the ruthenated species. The ruthenium concentration was quantified by UV-vis (ε456=14,500 M^−1 cm^−1).
Each solution was injected three different times, with intermediary blank runs of pure acetonitrile. Relative peak intensities were determined using analysis software, which deconvolved the spectra to assign one singly charged peak to each compound. […] This information was crucial in quantifying hydroxylated product yields relative to starting material in the analysis of subsequent turnover experiments.
The oxygen electrode was calibrated at 20° C. (linear response with [O2], 0–100% O2), and connected to a LeCroy oscilloscope interfaced to a PC using freely available LeCroy software (LeCroy, Chestnut Ridge, N.Y.). The O2 electrode (3 mm diameter with Teflon casing) was pushed through a septum, which formed an airtight seal with the mouth of a standard 1 cm pathlength cuvette. […] All UV-vis experiments were conducted with stirred samples at 20° C. […] Experiments were initiated upon addition of 200 μM NADH, and absorbance at 340 nm was measured simultaneously with O2 consumption.
The consumption of NADH was monitored at 340 nm by UV-vis spectroscopy and O2 consumption monitored with the microelectrode. Once all of the NADH was consumed, a known amount of 3-endo-bromo-camphor was added, and the mixture was extract three times with an equal volume of methylene chloride. The organic extract was concentrated by evaporation and analyzed by GC.

For data set [4], the system named is iNOS. To be noted: cited from earlier work.
The subject of data set [5] is eNOS. To be noted: cited from earlier work.
Data set [6] relates to nNOS. The note with it: cited from earlier work.
Data set [7] concerns NOS. The note with it: cited from earlier work.
The target in data set [8] is T2, cytochrome P450cam. The note with it: untethered control complexes.
The target of data set [9] is Asp251Asn (Pseudomonas putida, UniProt P00183, D252N). To be noted: decreases above 15° C.; cited from earlier work.
The target of data set [10] is T3, P450:Ru complex (Pseudomonas putida, UniProt P00183).
T3 construct: made in house
T3 sequence (P00183 2-415 limits assumed): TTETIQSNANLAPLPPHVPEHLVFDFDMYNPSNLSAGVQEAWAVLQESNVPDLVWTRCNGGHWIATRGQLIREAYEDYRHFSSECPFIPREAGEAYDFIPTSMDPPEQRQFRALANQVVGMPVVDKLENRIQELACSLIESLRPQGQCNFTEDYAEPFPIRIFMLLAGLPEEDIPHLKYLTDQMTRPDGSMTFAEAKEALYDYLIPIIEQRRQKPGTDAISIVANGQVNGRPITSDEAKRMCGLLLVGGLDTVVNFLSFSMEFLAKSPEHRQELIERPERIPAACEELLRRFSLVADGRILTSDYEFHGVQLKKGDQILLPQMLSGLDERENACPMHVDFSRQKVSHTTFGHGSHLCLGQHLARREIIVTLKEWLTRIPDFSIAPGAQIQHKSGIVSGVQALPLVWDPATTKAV
As to the kind of experiment: Camphor titration into stoichiometric P450:Ru—C10 (UV-vis). Type of data set: binding.

Data set [11] deals with T4, P450 (Pseudomonas putida, UniProt P00183).
T4 construct: made in house; host or cells: E. coli
T4 sequence (P00183 1-415): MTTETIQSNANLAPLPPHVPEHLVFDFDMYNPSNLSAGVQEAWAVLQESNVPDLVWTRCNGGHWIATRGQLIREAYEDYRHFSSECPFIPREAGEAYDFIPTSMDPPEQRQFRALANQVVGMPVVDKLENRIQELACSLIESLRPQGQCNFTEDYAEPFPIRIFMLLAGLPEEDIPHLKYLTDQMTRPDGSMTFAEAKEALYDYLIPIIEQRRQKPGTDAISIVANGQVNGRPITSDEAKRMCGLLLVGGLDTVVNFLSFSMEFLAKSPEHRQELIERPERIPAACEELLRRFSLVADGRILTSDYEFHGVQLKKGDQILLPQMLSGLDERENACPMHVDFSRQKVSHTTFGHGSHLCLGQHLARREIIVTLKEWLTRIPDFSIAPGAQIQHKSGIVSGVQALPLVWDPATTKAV
The note with it: cited from earlier work.

Data set [12] deals with T5, P450cam (Pseudomonas putida, UniProt P00183).
T5 construct: made in house; host or cells: E. coli
T5 sequence (P00183 1-415): T4 sequence (P00183 1-415)
As to the kind of experiment: Binding of [Ru(phen)2dppa]-adamantyl probes to P450. The note with it: Example VI. How it is done: (§1) Electrospray mass spec. data was collected on a Finnigan LCQ quadrupole ion trap mass spectrometer.
(§2) P450 was stored in small aliquots and thawed immediately before use. Samples were prepared in 50 mM Kphos buffer containing 100 mM KCl. P450 concentration was quantified using the heme soret absorption at 416.5 nm (115,000 M^−1 cm^−1). Samples were prepared in a custom quartz cuvette fitted with a Kontes Teflon stopcock. Oxygen was removed from the sample by completing at least 30 cycles of partial vacuum followed by an influx of argon.

Data set [13] has as its target T4, P450. The data set is described as follows: Steady-state luminescence of Ru-dppa probes in acetonitrile, buffer and buffer with P450. The note with it: for integrated luminescence intensity with P450 as % of value in acetonitrile: buffer in the presence of P450. As for the experimental part: as §1, §2
The luminescence of compounds 1–3 was examined in acetonitrile, potassium phosphate buffer, and buffer in the presence of P450 (as described above). […] The complexes 2 and 3 show modest recoveries of luminescence, with integrated intensities that are 2.6 and 5.2% of their values in acetonitrile (FIG. 49). The luminescence from 3 is approximately 20 fold greater in the presence of P450 than in buffer alone.

Data set [14] deals with six heme proteins (yeast cytochrome c, horse skeletal muscle myoglobin, bovine lipase cytochrome b5, bovine liver catalase, recombinant yeast cytochrome c …). The data set is described as follows: Emission decay of Ru-substrate in presence of other heme proteins. To be noted: […] Ru—C9-Ad, 50 mM sodium phosphate pH 7; monophasic = no binding.

On to `NC(=O)CC12CC3CC(CC(C3)C1)C2` [1-adamantylacetamide], for which the “rate of hydroxylation, literature value” in data set [1] (literature) is about 110 μmol NADH/min/μmol P450.

Turning to `NC(=O)CC1C2CC3CC(C2)CC1C3` (stereo not shown) [2-adamantylacetamide], in [2], the “spin conversion at the heme” value is “full low to high spin conversion”. Further, in [2] (ferric-aquo P450), the “conversion of heme to high-spin species on binding” value was determined as 95%. In data set [3], the “yield of hydroxylated product based on NADH (product formation/NADH consumption)” value worked out at 47±3% and the “rate of hydroxylation (NADH consumption)” value is 90±20 μmol NADH/min/μmol P450.

Regarding `CC(=N)NCc1cccc(CN)c1` [1400W], the “type of inhibition” value in [4] is on record as “irreversible inhibitor”; in data set [5] it was “weak, reversible inhibitor”; in data set [6], “weak, reversible inhibitor”.

As for `N=C(NCCC[C@H](N)C(=O)O)N[N+](=O)[O-]` [NMA, N^ω-nitro-arginine], in [7], the “inhibition of NOS” value is “good, but non-specific inhibitor”.

`[Cl-].[Cl-].[Ru+2].c1ccc(-c2ccccn2)nc1.c1ccc(-c2ccccn2)nc1.c1ccc(-c2ccccn2)nc1` [[Ru(bpy)3]^2+, Tris(2,2′-bipyridine)ruthenium(II) chloride]: the “quenching upon addition of P450” value in data set [8] is reported as “not quenched”.

`CC12CCC(CC1=O)C2(C)C` (stereo not shown) [camphor]: the “association constant for camphor (In Keq), Asp251Asn” value in [9] is about 14.2. Moreover, the “coupling of hydroxylation reaction” value in data set [1] is on record as about 100%. The Kd in [2] (dissociation constant of camphor (KS, Kcam), P450 alone, no Ru-substrate, 50 mM potassium phosphate, 100 mM KCl, pH 7.4, 20 °C) was 3 µM and 3.1 µM; in [10], 3.6 ± 0.2 µM; in data set [11] (comparison value, read-out: KD of camphor (natural substrate)), ~1 µM and 1.6 µM. In addition, in data set [3], the “rate of hydroxylation (NADH consumption)” value was about 600 μmol NADH/min/μmol P450. Further, the “association constant for camphor (In Keq), WT P450” value in data set [11] (decreases below 15° C.) is on record as about 14.2.

On to D-Phe-D-ArgNO2—OMe, for which the Kd in data set [4] is 3600 µM. In addition, the “dissociation constant” value in data set [5] and in [6] was “micromolar” throughout.

Turning to Ru(phen)2dppa-C6-Ad [compound 1], binding in data set [12] was put at a Kd of 0.25 µM. In addition, the “luminescence increase over background” value in data set [13] is listed as “did not show a significant increase in luminescence”.

Compound Ru(phen)2dppa-adm [compound 3] displayed a dissociation constant (Kd) in data set [12] of 0.18 µM. Also, in [13] (based on reported quantum yield of [Ru(phen)2dppz]2+ in aerated acetonitrile), the “quantum yield bound to P450” value is given as 0.00038. Further, the “integrated luminescence intensity with P450 as % of value in acetonitrile” value in [13] came out at 5.2%.

Ru(phen)2dppa-gly-adm [compound 2] yielded a Kd in [12] of 2.4 µM. The “integrated luminescence intensity with P450 as % of value in acetonitrile” value in data set [13] worked out at 2.6%.

For [Ru(bpy)2(bpy-C9-Ad)]Cl2 [Ru—C9-Ad], in data set [3], the “effective product yield based on background oxidase activity” value amounted to 40%; the “yield of hydroxylated product based on NADH (product formation/NADH consumption)” value stood at 10%; the “rate of hydroxylation (NADH consumption)” value was 10±2 μmol NADH/min/μmol P450 and 8 μmol NADH/min/μmol P450. Besides, in data set [14], the “emission decay profile in presence of six heme proteins” value is “monophasic”.

The values above are taken from US7105310B1, “Detection of biomolecules by sensitizer-linked substrates” (California Institute of Technology, priority 2000, dated 2006).
